Laboratory results taken from patent US4532254A, “Inhibitor of aldose reductase” (Kaken Pharmaceutical Co., Ltd., priority 1983, dated 1985).
Like-named read-outs stand apart in the source and are kept apart here.

Assays:
rat lens AR = biological target: T1, rat lens AR (Rattus norvegicus, UniProt P07943); test: Inhibition of rat lens aldose reductase (RLAR), NADPH oxidation at 340 nm; type: biochemical, rat (Wistar strain); settings: for inhibition at 10 µM: 10^-5 M; for inhibition at 10 µM / inhibition at 1 µM / inhibition at 0.1 µM: read-out: Inhibition against enzyme activity (%); for inhibition at 1 µM: 10^-6 M; for inhibition at 0.1 µM: 10^-7 M
T1 construct: Rat lenses were removed from eyes of rats of the Wistar strain; from tissue; host or cells: lens of Wistar rats; enzyme purified by ammonium sulfate, DEAE-Sephacel, Matrex gel red A and Sephadex G-75
Description: (§1) The inhibitory activities against AR of LARI-1, LARI-2, LARI-3 and LARI-4 were determined according to the following method.
(§2) In Recipe Example, the followings were used. NADPH was purchased from the Oriental Yeast Co., Ltd. DL-Glyceraldehyde and quercitrin were purchased from Nakarai Chemicals, Ltd. DEAE-Sephacel and Sephadex G-75 were purchased from Pharmacia Fine Chemicals. Matrex gel red A was purchased from the Amicon Co. All other chemicals were of the highest grade commercially available.
(§3) Rat lenses were removed from eyes of rats of the Wistar strain weighing 200 to 250 g. Bovine eyes were obtained from a local abattoir, and the lenses were removed and frozen until needed.
(§4) Usually a 10^-3 M solution was prepared and diluted to the desired concentrations with propylene glycol. To the reaction mixture were added aliquots of the diluted solution to yield concentrations of 10^-8 M to 10^-5 M and a propylene glycol concentration of 1%.
(§5) AR assays were conducted according to the procedure of Hayman and Kinoshita (J. Biol. Chem. 240, p. 877 (1965)), except for the addition of ammonium sulfate instead of lithium sulfate to the reaction mixture. Assays were performed at 30° C. in 0.1M sodium phosphate buffer (pH 6.2) containing 0.4M ammonium sulfate, 10 mM DL-glyceraldehyde, 0.16 mM NADPH and the enzyme (0.010 to 0.016 unit) in a total volume of 1.0 ml. The effects of inhibitors on the enzyme activity were determined in the reaction mixture containing 10 μl. of each inhibitor solution at the desired concentrations. The blank reference to correct for non-specific reduction of NADPH contained all of the above compounds except DL-glyceraldehyde. The reaction was initiated by the addition of DL-glyceraldehyde, and the rate of NADPH oxidation was followed by recording the decrease in absorbance at 340 nm on a Gilford model 250 spectrophotometer.
(§6) BLAR and RLAR were purified according to the method of Inagaki et al (Archs Biochem. Biophys. 216, p. 337 (1982)). Briefly, a 40 to 75% ammonium sulfate fraction was subjected to chromatography on DEAE-Sephacel, followed by two column chromatographic steps, i.e. affinity chromatography using Matrex gel red A and gel filtration on Sephadex G-75.
(§7) The concentration of inhibitor required for eliciting a 50% inhibition (IC50) was determined according to the method of Kador et al (Docum. Ophthal. Proc. Series 18, p. 117 (1979)).

bovine lens AR = biological target: T2, bovine lens AR (Bos taurus, UniProt P16116); test: Inhibition of bovine lens aldose reductase (BLAR), NADPH oxidation at 340 nm; type: biochemical; settings: for inhibition at 10 µM: 10^-5 M; for inhibition at 10 µM / inhibition at 1 µM / inhibition at 0.1 µM: read-out: Inhibition against enzyme activity (%); for inhibition at 1 µM: 10^-6 M; for inhibition at 0.1 µM: 10^-7 M; for IC50: Table 2, IC50 in M multiplied by 10^6
T2 construct: Bovine eyes were obtained from a local abattoir, and the lenses were removed and frozen until needed; from tissue; host or cells: bovine lens from a local abattoir; enzyme purified by ammonium sulfate, DEAE-Sephacel, Matrex gel red A and Sephadex G-75
Description: as §1, §2, §3, §4, §5, §6, §7

[1] = Table 2, IC50 in M multiplied by 10^6, read-out: IC50 (M) × 10^6
[2] = read-out: IC50 (inhibition of RLAR)

inhibition at 10 µM (rat lens AR) | inhibition at 1 µM (rat lens AR) | inhibition at 0.1 µM (rat lens AR) | IC50 (rat lens AR; [1]) | IC50 (rat lens AR; [2]) | inhibition at 10 µM (bovine lens AR) | inhibition at 1 µM (bovine lens AR) | inhibition at 0.1 µM (bovine lens AR) | IC50 (bovine lens AR) | Structure (SMILES)
92% | 74% | 36% | 2.5e-07 M | 2.5e-07 M | 95% | 70% | 18% | 420 nM | COc1c(O)c(OC)c2c(=O)cc(-c3ccc(O)cc3)oc2c1OC [LARI-3, 4',6-dihydroxy-5,7,8-trimethoxyflavone]
96% | 92% | 73% | 3.6e-08 M | 3.6e-08 M | 100% | 91% | 35% | 180 nM | COc1c(O)c(OC)c2c(=O)cc(-c3ccc(O)c(O)c3)oc2c1OC [LARI-1, 3',4',6-trihydroxy-5,7,8-trimethoxyflavone]
91% | 81% | 44% | 1.6e-07 M | 1.6e-07 M | 94% | 80% | 24% | 290 nM | COc1c(OC)c(OC)c2c(=O)cc(-c3ccc(O)cc3)oc2c1OC [LARI-2, 4'-hydroxy-5,6,7,8-tetramethoxyflavone]
